# Data as given in patent US12364752B2, “Methods of enhancing immunogenicity of poorly immunogenic antigen-specific vaccines using oral yeast beta-glucans” (priority 2018, dated 2025).
# Legend:
# [1] = test system: Ramos tumor cells; test: Ramos xenografts in SCID mice, Rituxan plus oral botanical adjuvants; type: in vivo; conditions: Rituxan alone at 5 μg dose
# Protocol: SCID mice (Jackson Lab, Bar Harbor ME) were first implanted subcutaneously in the flank area with Ramos tumor cells (a human lymphoma cell line; Pagel et al., Blood 108:328-36 (2006)) freshly harvested from culture and suspended in 100 μl matrigel (BD Biosciences, Billerica MA). When small palpable tumors started to appear (6-8 mm size), mice were randomly separated into treatment groups of 5 mice each. Mice were then given either oral botanical adjuvant, intravenous Rituxan mAb, or oral botanical adjuvant plus Rituxan mAb for 3 weeks. MAb was given twice a week through the tail vein. 2 mg of the tested botanical adjuvant (20 mg/ml solution or suspension in LPS-free water) was given by intragastric injection for 5 times a week. Tumor sizes (length and width) were measured twice a week with calipers. Mice were sacrificed when tumors were larger than 20 mm in length. For each botanical adjuvant, two endpoints were obtained: (1) positive anti-tumor effect [defined as statistically different from control group (treated with antibody alone)] and (2) anti-tumor index defined as (Mean tumor growth rate in mice treated with antibody alone)/(Mean tumor growth rate in mice treated with botanical adjuvant+antibody).
# [2] = Livingston et al. 1994; cited from earlier work
# [3] = test system: neuroblastoma; test: Phase I trial of GD2/GD3 bivalent vaccine with oral beta-glucan; conditions: at 150 μg/m^2 s.c. with bivalent vaccine
# Protocol: Patients with neuroblastoma in ≥2nd complete/very good partial remission received vaccine subcutaneously (at weeks 1, 2, 3, 8, 20, 32 and 52). The bivalent vaccine contained 30 μg each of GD2 and GD3 stabilized as lactones and conjugated to the immunologic carrier protein keyhole limpet hemocyanin (KLH); and OPT-821, which was dose escalated as 50, 75, 100, and 150 μg/m^2 per s.c. injection. Oral beta-glucan administration (40 mg/kg/day, 14 days on/14 days off x 12 cycles) was started at week 6 (FIG. 14).
Substance,tumor growth suppressed [1],maximal tolerated dose [2],dose-limiting toxicity [3]
Rituxan: rituximab mAb,30%,,
QS21,,20 µg,no dose-limiting toxicity
